Where “and” joins values, the source holds several entries; their conditions need not be identical. Equal values may be shown once. Read-outs that look alike come from different tables or passages of the source.
What was measured:
[1] = test system: parental Ba/F3 cells; assay: CellTiter-Glo cell viability assay; type: cell-based, murine
[2] = test system: Ba/F3^myr-Akt1 cells; assay: CellTiter-Glo cell viability assay; settings: for Log ratio EC50 [Akt] / EC50 [Akt], Akt1 / Akt2: cell viability assay Ba/F3 myr-Akt cells, log units
Description: On day 0, cells were plated into white 384-well cell culture plates (Greiner Bio-One) using a Multidrop reagent dispenser (Thermo Fisher Scientific) at cell numbers that ensure linear and optimal luminescent signal intensity (Ba/F3myr-Akt1: 600 cells/well, Ba/F3myr-Akt2: 800 cells/well, Ba/F3myr-Akt3: 800 cells/well). […] Cell viability was analyzed on day 4 using the CellTiter-Glo Assay (Promega) as per the manufacturer’s instructions. […] All experimental points were measured in duplicates for each plate and were replicated in at least three plates.

[3] = test system: Ba/F3^myr-Akt2 cells; assay: CellTiter-Glo cell viability assay
[4] = test system: Ba/F3^myr-Akt3 cells; assay: CellTiter-Glo cell viability assay; settings: for Log ratio EC50 [Akt] / EC50 [Akt], Akt3 / Akt2: cell viability assay Ba/F3 myr-Akt cells, log units
[5] = target: Akt1 (Homo sapiens, UniProt P31749); assay: STK HTRF KinEASE activity-based assay (IC50); settings: for Log ratio IC50 [Akt] / IC50 [Akt], Akt1 / Akt2: biochemical activity based assay, log units
Chain of Akt1 (P31749 whole entry): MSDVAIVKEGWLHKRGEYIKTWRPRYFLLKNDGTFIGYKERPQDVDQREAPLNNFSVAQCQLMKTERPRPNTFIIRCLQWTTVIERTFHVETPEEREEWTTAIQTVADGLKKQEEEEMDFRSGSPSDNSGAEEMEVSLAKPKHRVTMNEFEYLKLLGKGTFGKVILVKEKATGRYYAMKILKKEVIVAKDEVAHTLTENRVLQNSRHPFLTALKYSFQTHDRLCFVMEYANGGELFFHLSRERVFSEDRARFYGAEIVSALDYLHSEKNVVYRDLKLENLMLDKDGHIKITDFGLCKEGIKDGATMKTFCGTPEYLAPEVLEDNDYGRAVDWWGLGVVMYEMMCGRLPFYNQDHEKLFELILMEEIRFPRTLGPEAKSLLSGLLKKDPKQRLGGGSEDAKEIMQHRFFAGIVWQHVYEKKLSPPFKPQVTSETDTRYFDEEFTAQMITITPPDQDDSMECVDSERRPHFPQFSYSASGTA

[6] = target: Akt2 (Homo sapiens, UniProt P31751); assay: STK HTRF KinEASE activity-based assay (IC50)
Chain of Akt2 (P31751 whole entry): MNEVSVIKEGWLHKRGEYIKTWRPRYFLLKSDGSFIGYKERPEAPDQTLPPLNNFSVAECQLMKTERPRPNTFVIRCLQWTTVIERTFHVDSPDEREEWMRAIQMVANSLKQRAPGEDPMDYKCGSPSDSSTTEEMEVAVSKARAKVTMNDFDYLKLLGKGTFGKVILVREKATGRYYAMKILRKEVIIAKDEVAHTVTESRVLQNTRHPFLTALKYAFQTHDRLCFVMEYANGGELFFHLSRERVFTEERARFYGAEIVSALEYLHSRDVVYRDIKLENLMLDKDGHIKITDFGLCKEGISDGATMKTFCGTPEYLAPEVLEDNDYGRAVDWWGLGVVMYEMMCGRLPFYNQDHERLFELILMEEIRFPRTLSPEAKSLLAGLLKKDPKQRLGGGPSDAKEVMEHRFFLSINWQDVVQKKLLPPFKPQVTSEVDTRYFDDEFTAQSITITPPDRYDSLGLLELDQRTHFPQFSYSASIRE
Description: (§1) The biochemical half maximal inhibitory concentrations (IC50) were determined with the STK HTRF KinEASE assay (Cisbio) according to the manufactor’s instructions. Briefly: 5 µL Kinase solution and 2.5 µL inhibitor solution (8% DMSO in HTRF buffer) were incubated for 1 h before the reaction was started by addition of 2.5 µL starting solution containing ATP and substrate peptide. […] After reaction completion (Akt1: 60 min, Akt2: 20 min, Akt3: 15 min), 10 µL of stop solution were added. […] The quotient of both intensities were recorded at eight different inhibitor concentrations and data fit to a Hill 4-parameter equation with Quattro software suite (Quattro Research GmbH, Martinsried, Germany). Each reaction was performed in duplicates and at least three independent determinations of each IC50 were made.

[7] = target: Akt3 (Homo sapiens, UniProt Q9Y243); assay: STK HTRF KinEASE activity-based assay (IC50)
Chain of Akt3 (Q9Y243 whole entry): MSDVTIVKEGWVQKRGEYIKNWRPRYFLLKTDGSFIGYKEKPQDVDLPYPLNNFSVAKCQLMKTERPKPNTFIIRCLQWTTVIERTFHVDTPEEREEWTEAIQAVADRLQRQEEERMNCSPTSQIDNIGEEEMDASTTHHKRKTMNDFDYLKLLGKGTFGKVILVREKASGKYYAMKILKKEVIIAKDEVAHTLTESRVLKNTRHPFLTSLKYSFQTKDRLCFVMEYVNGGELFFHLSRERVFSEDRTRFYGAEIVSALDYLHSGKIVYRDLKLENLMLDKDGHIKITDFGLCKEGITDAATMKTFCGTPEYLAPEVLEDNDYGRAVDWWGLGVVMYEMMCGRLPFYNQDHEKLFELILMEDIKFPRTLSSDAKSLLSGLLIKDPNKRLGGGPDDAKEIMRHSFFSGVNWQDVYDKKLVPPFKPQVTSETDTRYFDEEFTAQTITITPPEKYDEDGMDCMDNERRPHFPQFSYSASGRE
Description: as §1

[8] = Mus musculus, BaF3, parental cells, single replicates, read-out: CTG BaF3, individual determinations
[9] = parental cells, single replicates, read-out: CTG BaF3, individual determinations
[10] = Mus musculus, read-out: CTG BaF3myr-Akt1, Mean, mean of replicates
[11] = Mus musculus, read-out: CTG BaF3myr-Akt1, individual determinations, single replicates
[12] = read-out: CTG BaF3myr-Akt1, individual determinations, single replicates
[13] = Mus musculus, read-out: CTG BaF3myr-Akt2, Mean, mean of replicates
[14] = Mus musculus, read-out: CTG BaF3myr-Akt2, individual determinations, single replicates
[15] = read-out: CTG BaF3myr-Akt2, individual determinations, single replicates
[16] = Mus musculus, read-out: CTG BaF3myr-Akt3, Mean, mean of replicates
[17] = read-out: CTG BaF3myr-Akt3, individual determinations, single replicates
[18] = HTRF IC50 Akt1, Mean, mean of replicates
[19] = HTRF IC50 Akt1, individual determinations, single replicates
[20] = IC50 Akt1, HTRF, ATP at KM, 1 h preincubation
[21] = HTRF IC50 Akt2, Mean, mean of replicates
[22] = HTRF IC50 Akt2, individual determinations, single replicates
[23] = IC50 Akt2, HTRF, ATP at KM, 1 h preincubation
[24] = HTRF IC50 Akt3, Mean, mean of replicates
[25] = HTRF IC50 Akt3, individual determinations, single replicates
[26] = IC50 Akt3, HTRF, ATP at KM, 1 h preincubation
[27] = Mus musculus, read-out: EC50 BaF3myr-Akt1, CTG
[28] = Mus musculus, read-out: CTG BaF3myr-Akt3, individual determinations, single replicates
[29] = Mus musculus, BaF3, parental cells, mean of replicates, read-out: CTG BaF3, Mean

Row | SMILES | EC50 [1, 8] [µM] | EC50 [1, 9] | EC50 [2, 10] [µM] | EC50 [2, 11] [µM] | Log ratio EC50 [Akt] / EC50 [Akt], Akt1 / Akt2 [2] | EC50 [2, 12] | EC50 [3, 13] [µM] | EC50 [3, 15] | EC50 [4, 16] [µM] | Log ratio EC50 [Akt] / EC50 [Akt], Akt3 / Akt2 [4] | EC50 [4, 17] | IC50 [5, 18] [µM] | IC50 [5, 19] | IC50 [5, 20] [µM] | Log ratio IC50 [Akt] / IC50 [Akt], Akt1 / Akt2 [5] | IC50 [6, 22] | IC50 [6, 23] [µM] | IC50 [7, 24] [µM] | IC50 [7, 25] | IC50 [7, 26] [µM] | further results
1 | C=CC(=O)Nc1ccc2[nH]c(=O)n(C3CCN(Cc4ccc(-c5ncc(Cc6cnn(C)c6)cc5-c5ccccc5)cc4)CC3)c2c1 [compound 12] | 17.5 | > 30 µM and 26.7 µM | 8.29 | 7.5 | 0.43 | 10.1 µM and 7.32 µM | 3.05 | 2.1 µM and 3.52 µM | 5.29 | -0.24 | 9.47 µM and 3.28 µM and 3.12 µM | 1.28 | 1.29 µM (2×) and 1.26 µM | 1.28 ± 0.018 | 0.71 | 0.27 µM and 0.352 µM and 0.233 µM | 0.251 ± 0.018 | 0.607 | 0.64 µM and 0.477 µM and 0.703 µM | 0.607 ± 0.095 | EC50 [3, 14]: 3.04 µM; IC50 [6, 21]: 0.251 µM
2 | C=CC(=O)Nc1ccc2[nH]c(=O)n(C3CCN(Cc4ccc(-c5ncc(CNCC(C)C)cc5-c5ccccc5)cc4)CC3)c2c1 [compound 9] | > 30 | 28.5 µM and > 30 µM | > 30 | > 30 | 0.34 | > 30 µM | 13.6 | 12.5 µM | 14.1 | -0.02 | 18.6 µM and 9.33 µM and 12.7 µM | 5.93 | 6.84 µM and 5.56 µM and 5.38 µM | 5.93 ± 0.793 | 0.15 | 4.62 µM and 3.65 µM and 4.37 µM | 4.21 ± 0.412 | 8.37 | 6.9 µM and 10.4 µM and 7.86 µM | 8.37 ± 1.78 | EC50 [2, 27]: > 30 µM; EC50 [3, 14]: 17.2 µM; EC50 [4, 28]: 15.9 µM; IC50 [6, 21]: 4.21 µM
3 | C=CC(=O)Nc1ccc2[nH]c(=O)n(C3CCN(Cc4ccc(-c5ncc(C(=O)N6CCCC6)cc5-c5ccccc5)cc4)CC3)c2c1 [compound 8] | 17.3 | 20.7 µM and > 30 µM | > 30 | > 30 | 0.37 | > 30 µM | 12.8 | 12.4 µM and 14.1 µM | 26.5 | -0.32 | 28.3 µM and 27 µM | 4.57 | 4.34 µM and 4.53 µM and 4.82 µM | 4.57 ± 0.197 | 0.34 | 1.92 µM and 4.34 µM and 2.21 µM | 2.07 ± 0.147 | > 20 | > 20 µM | > 20 | EC50 [2, 27]: > 30 µM; EC50 [3, 14]: 11.8 µM; EC50 [4, 28]: 23.6 µM; drop in affinity of the amide-linked version (7 vs. 8) ([6]; Akt2, biochemical IC50): 5 fold; IC50 ([7]; read-out: HTRF IC50 Akt3, individual determinations, single replicates): > 20 µM
4 | C=CC(=O)Nc1ccc2[nH]c(=O)n(C3CCN(Cc4ccc(-c5ncc(C)cc5-c5ccccc5)cc4)CC3)c2c1 [compound 2] | 13.2 | 10.3 µM and 10.9 µM | 3.1 | 2.81 | 0.05 | 3.52 µM and 2.96 µM | 2.79 | 3.99 µM and 1.13 µM and 1.58 µM | > 30 | -0.46 | > 30 µM | 0.0218 | 0.0221 µM and 0.0229 µM and 0.0205 µM | 0.022 ± 0.002 | -0.83 | 0.156 µM and 0.149 µM and 0.144 µM | 0.15 ± 0.005 | 7.51 | 7.41 µM and 4.78 µM and 10.2 µM and 5.33 µM and 9.79 µM | 7.51 ± 1.82 | EC50 [1, 29]: 11.5 µM; EC50 [4, 28]: > 30 µM; EC50 ([4]; Mus musculus, read-out: EC50 BaF3myr-Akt3, CTG): > 30 µM; IC50 [6, 21]: 0.15 µM
5 | C=CC(=O)Nc1ccc2[nH]c(=O)n(C3CCN(Cc4ccc(-c5ncc(C(=O)Nc6ccccn6)cc5-c5ccccc5)cc4)CC3)c2c1 [compound 23] | > 30 | > 30 µM | 14.6 | – | 0.72 | 8.09 µM and 10.5 µM and 25.3 µM | 2.76 | 4.03 µM and 2.63 µM and 1.62 µM | 17.1 | -0.79 | 9.71 µM and 24.4 µM and 23.9 µM | 0.13 | 0.128 µM and 0.117 µM and 0.144 µM | 0.13 ± 0.011 | -0.07 | 0.117 µM and 0.167 µM and 0.17 µM | 0.151 ± 0.025 | 6.3 | 3.66 µM and 8.18 µM and 7.06 µM | 6.3 ± 1.92 | EC50 ([1]; Mus musculus, BaF3, CTG, parental BaF3 cell line, read-out: EC50 BaF3): > 30 µM; EC50 [1, 29]: > 30 µM; IC50 [6, 21]: 0.152 µM
6 | C=CC(=O)Nc1ccc2[nH]c(=O)n(C3CCN(Cc4ccc(-c5ncc(C(=O)OC)cc5-c5ccccc5)cc4)CC3)c2c1 [compound 5] | 18.7 | 12.7 µM and 17.6 µM | 4.92 | 5.83 | 0.26 | 4.17 µM and 4.75 µM | 2.71 | 3.75 µM and 1.35 µM and 1.68 µM | 7.65 | -0.45 | 7.85 µM and 7.37 µM | 0.0355 | 0.038 µM and 0.0373 µM and 0.0312 µM | 0.035 ± 0.004 | -0.52 | 0.119 µM and 0.116 µM and 0.114 µM | 0.116 ± 0.002 | 3.4 | 3.96 µM and 3.22 µM and 3.01 µM | 3.4 ± 0.406 | EC50 [1, 29]: 16.3 µM; EC50 [4, 28]: 7.73 µM; IC50 [6, 21]: 0.116 µM
